Data from PubChem BioAssay AID2060487 (Molecular Pharmacology Branch, DTP, NCI, 2025).

System: 997537-175-T-J1-PDC complex spheroid viability
Assay: Anticancer human tumor 997537-175-T-J1-PDC patient-derived colon adenocarcinoma cell line growth inhibition [GQUAD]
Conditions: for IC50: curve of first compound; for viability, T/C: stronger effect = lower value
In short: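 Viability of tumor cells grown as complex spheroids with endothelial and stromal cells, exposed to drug combinations. Top concentration at or near clinical Cmax (else 10 microM), diluted in half-log increments.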

[1] = second compound 0.0316 µM, first compound 0.0316 µM
[2] = second compound 0.0316 µM, first compound 0.1 µM
[3] = second compound 0.0316 µM, first compound 0.316 µM
[4] = second compound 0.0316 µM, first compound 1 µM
[5] = second compound 0.0316 µM, first compound 3.16 µM
[6] = second compound 0.0316 µM, first compound 10 µM
[7] = second compound 0.1 µM, first compound 0.0316 µM
[8] = second compound 0.1 µM, first compound 0.1 µM
[9] = second compound 0.1 µM, first compound 0.316 µM
[10] = second compound 0.1 µM, first compound 1 µM
[11] = second compound 0.1 µM, first compound 3.16 µM
[12] = second compound 0.1 µM, first compound 10 µM
[13] = second compound 0.316 µM, first compound 0.0316 µM
[14] = second compound 0.316 µM, first compound 0.1 µM
[15] = second compound 0.316 µM, first compound 0.316 µM
[16] = second compound 0.316 µM, first compound 1 µM
[17] = second compound 0.316 µM, first compound 3.16 µM
[18] = second compound 0.316 µM, first compound 10 µM
[19] = second compound 1 µM, first compound 0.0316 µM
[20] = second compound 1 µM, first compound 0.1 µM
[21] = second compound 1 µM, first compound 0.316 µM
[22] = second compound 1 µM, first compound 1 µM
[23] = second compound 1 µM, first compound 3.16 µM
[24] = second compound 1 µM, first compound 10 µM
[25] = second compound 3.16 µM, first compound 0.0316 µM
[26] = second compound 3.16 µM, first compound 0.1 µM
[27] = second compound 3.16 µM, first compound 0.316 µM
[28] = second compound 3.16 µM, first compound 1 µM
[29] = second compound 3.16 µM, first compound 3.16 µM
[30] = second compound 3.16 µM, first compound 10 µM
[31] = second compound 10 µM, first compound 0.0316 µM
[32] = second compound 10 µM, first compound 0.1 µM
[33] = second compound 10 µM, first compound 0.316 µM
[34] = second compound 10 µM, first compound 1 µM
[35] = second compound 10 µM, first compound 3.16 µM
[36] = second compound 10 µM, first compound 10 µM
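Also: spheroids exposed to the agents for 7 days.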
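For viability, T/C in this document: 100% = DMSO vehicle control viability.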

Compound: COc1cccc2c1C(=O)c1c(O)c3c(c(O)c1C2=O)CC(O)(C(=O)CO)CC3OC1CC(N)C(O)C(C)O1 (stereo unspecified) + Cc1[nH]c2ccc(F)cc2c1-c1nc2c3cccnc3c3ncccc3c2[nH]1
- IC50 (second compound 0.0316 µM): > 10 µM
- IC50 (second compound 0.1 µM): 9.79 µM
- IC50 (second compound 0.316 µM): 8.04 µM
- IC50 (second compound 1 µM): 8.48 µM
- IC50 (second compound 3.16 µM): 6.46 µM
- IC50 (second compound 10 µM): 5.6 µM
- viability, T/C [1]: 97.6%
- viability, T/C [2]: 82.8%
- viability, T/C [3]: 101%
- viability, T/C [4]: 97.7%
- viability, T/C [5]: 95.5%
- viability, T/C [6]: 51.1%
- viability, T/C [7]: 80.7%
- viability, T/C [8]: 78%
- viability, T/C [9]: 95.4%
- viability, T/C [10]: 91.7%
- viability, T/C [11]: 96.9%
- viability, T/C [12]: 49.2%
- viability, T/C [13]: 101%
- viability, T/C [14]: 83.3%
- viability, T/C [15]: 80.7%
- viability, T/C [16]: 96.9%
- viability, T/C [17]: 79.8%
- viability, T/C [18]: 43.1%
- viability, T/C [19]: 76.2%
- viability, T/C [20]: 91.3%
- viability, T/C [21]: 92.7%
- viability, T/C [22]: 85.4%
- viability, T/C [23]: 80.3%
- viability, T/C [24]: 44.9%
- viability, T/C [25]: 74%
- viability, T/C [26]: 64.4%
- viability, T/C [27]: 84.1%
- viability, T/C [28]: 83.6%
- viability, T/C [29]: 95.1%
- viability, T/C [30]: 31.4%
- viability, T/C [31]: 67.6%
- viability, T/C [32]: 86.5%
- viability, T/C [33]: 94.1%
- viability, T/C [34]: 88.7%
- viability, T/C [35]: 66.7%
- viability, T/C [36]: 33.2%

Compound: CC(C)n1c(=O)n(C)c2cnc3cc(F)c(-c4ccc(OCCCN5CCCCC5)nc4)cc3c21 + Cc1[nH]c2ccc(F)cc2c1-c1nc2c3cccnc3c3ncccc3c2[nH]1
- IC50 (second compound 0.0316 µM): > 10 µM
- IC50 (second compound 0.1 µM): > 10 µM
- IC50 (second compound 0.316 µM): > 10 µM
- IC50 (second compound 1 µM): > 10 µM
- IC50 (second compound 3.16 µM): > 10 µM
- IC50 (second compound 10 µM): > 10 µM
- viability, T/C [1]: 117%
- viability, T/C [2]: 104%
- viability, T/C [3]: 112%
- viability, T/C [4]: 98.2%
- viability, T/C [5]: 113%
- viability, T/C [6]: 106%
- viability, T/C [7]: 121%
- viability, T/C [8]: 97.6%
- viability, T/C [9]: 97.6%
- viability, T/C [10]: 95.6%
- viability, T/C [11]: 108%
- viability, T/C [12]: 99.9%
- viability, T/C [13]: 94.2%
- viability, T/C [14]: 103%
- viability, T/C [15]: 88.8%
- viability, T/C [16]: 77.9%
- viability, T/C [17]: 116%
- viability, T/C [18]: 84%
- viability, T/C [19]: 86.4%
- viability, T/C [20]: 109%
- viability, T/C [21]: 91.1%
- viability, T/C [22]: 107%
- viability, T/C [23]: 112%
- viability, T/C [24]: 98.8%
- viability, T/C [25]: 89.3%
- viability, T/C [26]: 100%
- viability, T/C [27]: 100%
- viability, T/C [28]: 93.2%
- viability, T/C [29]: 98.2%
- viability, T/C [30]: 90.5%
- viability, T/C [31]: 81.5%
- viability, T/C [32]: 79.9%
- viability, T/C [33]: 95.7%
- viability, T/C [34]: 79.9%
- viability, T/C [35]: 88.9%
- viability, T/C [36]: 72.5%

Compound: CC1COCCN1c1cc(C2(S(C)(=N)=O)CC2)nc(-c2ccnc3[nH]ccc23)n1 (stereo unspecified) + Cc1cnc(CNC(=O)c2c(=O)c3ccc(N4CCCN(C)CC4)nc3n3c2sc2ccccc23)cn1
- IC50 (second compound 0.0316 µM): 3.67 µM
- IC50 (second compound 0.1 µM): 8.64 µM
- IC50 (second compound 0.316 µM): > 10 µM
- IC50 (second compound 1 µM): > 10 µM
- IC50 (second compound 3.16 µM): > 10 µM
- IC50 (second compound 10 µM): > 10 µM
- viability, T/C [1]: 105%
- viability, T/C [2]: 88.9%
- viability, T/C [3]: 84.8%
- viability, T/C [4]: 56.8%
- viability, T/C [5]: 54.9%
- viability, T/C [6]: 41.7%
- viability, T/C [7]: 91.4%
- viability, T/C [8]: 90.4%
- viability, T/C [9]: 83.9%
- viability, T/C [10]: 65.9%
- viability, T/C [11]: 72.3%
- viability, T/C [12]: 45.2%
- viability, T/C [13]: 89.5%
- viability, T/C [14]: 92.8%
- viability, T/C [15]: 80.6%
- viability, T/C [16]: 60.3%
- viability, T/C [17]: 55.4%
- viability, T/C [18]: 53.4%
- viability, T/C [19]: 86.7%
- viability, T/C [20]: 82.5%
- viability, T/C [21]: 69.6%
- viability, T/C [22]: 65.8%
- viability, T/C [23]: 84.7%
- viability, T/C [24]: 83.7%
- viability, T/C [25]: 65.4%
- viability, T/C [26]: 83.7%
- viability, T/C [27]: 104%
- viability, T/C [28]: 78.2%
- viability, T/C [29]: 59.3%
- viability, T/C [30]: 69%
- viability, T/C [31]: 74.8%
- viability, T/C [32]: 71.4%
- viability, T/C [33]: 91.8%
- viability, T/C [34]: 68.3%
- viability, T/C [35]: 85.4%
- viability, T/C [36]: 85.8%
